Legend:
Pol II pausing [1] = test: total Pol II ChIP-seq upon auxin, JQ1, dBET6 or NVP-2 treatment; assay type: cell-based, human; settings: BRD4-IAA7 cells
Description: FIG. 1A illustrates the updated BRD4-IAA7 degron line. The F-box protein AtAFB2 was integrated into the C terminus of the BRD4 locus under the control of an independent promoter. […] These treatment concentrations/durations are relevant to all of FIG. 1. […] The gene list (N=6481) in this analysis is used throughout the study (except for FIGS. 3H-J). FIG. 1D illustrates the estimated Cumulative Density Function (ECDF) of pause release ratios (PRR, reported as log 2 fold change) for auxin treatment vs untreated control. The PRR is the ratio of Pol II occupancy within gene bodies to its occupancy at promoters. A leftward shift of the curve indicates an increase in the frequency and/or duration of promoter-proximal pausing, while a rightward shift indicates reduced pausing and/or more efficient release into gene bodies.
FIGS. 8A-8E. collectively illustrate the differences in Pol II pausing induced by BRD4 depletion and bromodomain inhibition, related to FIG. 1. FIG. 8A illustrates the western blot showing the expression of HA-tagged AtAFB2 and the auxin-induced degradation of V5-tagged BRD4 using anti-tag antibodies. FIG. 8B illustrates the western blot comparing the BRD4 protein expression level and degradation kinetics of the previously published BRD4-AID degron to those of the BRD4-IAA7 degron used in this study 12. Note: in FIGS. 8A and 8B, the BRD4-IAA7 clone used is D4 (Hygromycin selected); it is G3 (Neomycin selected) otherwise in the study. […] FIG. 8E illustrates the track examples of Pol II ChIP-seq signal at the HSPA8 and GAPDH loci upon NVP-2 treatment (2 h) and corresponding heatmaps showing Pol II occupancy profiles and fold change in occupancy vs control upon NVP-2 treatment.
To specifically deplete BRD4 without affecting other BET proteins, we generated an updated BRD4 degron line by modifying the published miniIAA7 degron system (hereafter BRD4-IAA7) to reduce basal degradation seen with AID degron-tagged BRD4^30 (FIGS. 1A and 8A).
DLD1 cells were crosslinked with 15 ml 1% PFA (ThermoFisher, #28908) in PBS on 15 cm plates for 10 minutes at RT and quenched by the addition of 2 ml 2.5M glycine followed by shaking for 5 minutes. Crosslinked cells were collected by scraping. Chromatin sonication was performed for 10 minutes using a Covaris E200 set to 10% duty factor, 200 cycles per burst, and 140 peak intensity power. For endogenous protein ChIP, 10-20% of mouse embryonic fibroblasts (MEF) chromatin (prepared the same way as in DLD1 cells) was added to each sample as a spike-in control. For overexpressed protein ChIP, such as GFP-ChIP, 20 ng spike-in chromatin (Active Motif, #53083) and 2 ug spike-in antibody (Active Motif, #61686) were added to each sample. Immunoprecipitation was carried out at 4° C. overnight using 5ul of Rpb1 (Cell Signaling Technology, #D8L4Y), 5ul of Ser2p (Active Motif, #61984), 10ul of CCNT1 (Cell Signaling Technology, #81464), 10ul of CDK9 (Santa Cruz Biotechnology, #sc-13130 X) antibodies, or 200ul of a cocktail consisting of 50ul of each GFP antibody (DSHB, #GFP-G1, #GFP-12A6, #GFP-12E6, #GFP-8H11). Immune complexes were enriched with Protein G-coupled Dynabeads (Invitrogen, #10004D) at 4° C. for >=4 h, and incubated with proteinase K (Roche, #3115828001) to reverse crosslink at 65° C. overnight. Eluted DNA was purified with the QIAquick PCR Purification Kit (Qiagen, #28106), and libraries were prepared using the KAPA HTP library preparation kit (Roche, #07961901001) for sequencing on the NovaSeq 6000.
Reads were aligned to hg38 with bowtie 1/250. Genes (N=6,481) with pausing site and TES annotation were obtained from a previously published study51. Promoter regions were designated as spanning from 100 bp upstream to 300 bp downstream of the pausing site. Gene body regions were designated as spanning from 300 bp downstream of the pausing site to the TES. FeatureCounts 2.0.152 was used to calculate the total mapped reads from Pol II ChIP-seq at promoters and within gene bodies. […]

CCNT1 = CCNT1 ChIP-seq with increasing concentrations of JQ1; assay type: cell-based, human; settings: BRD4-IAA7 cells; series concentration of JQ1, 3 h
Method: (§1) FIGS. 5A-5J collectively illustrate the identification of a distinct BRD4-PTEFb population, which is active but not histone acetylation-bound. FIG. 5A illustrates the track examples for AID ChIP-seq in the BRD4-AID line and CCNT1 ChIP-seq in the BRD4-IAA7 line with/without auxin treatment (3 h). H3K27ac ChIP-seq signal in the BRD4-AID line is shown for comparison. FIG. 5B illustrates the heatmap showing the genome-wide BRD4 and CCNT1 occupancy profile and the corresponding fold change upon auxin treatment for the conditions in A. Genes ranked by BRD4 signal in control. FIG. 5C illustrates the scatter plot showing the relative promoter density of CCNT1 vs BRD4, calculated by the log 2RPKM of the ChIP-seq signals at the regions flanking (±1 Kb) the Pol II pausing sites. FIG. 5D illustrates the track examples for GFP ChIP-seq signal upon induction of GFP-tagged BRD4-FL or the indicated mutants (left). Heatmap showing the genome-wide fold changes of the GFP-tagged BRD4 mutants relative to the vector (right). The endogenous BRD4 was depleted by auxin treatment (3 h) in all samples. Genes are ranked by GFP signal in the GFP-BRD4-FL condition. FIG. 5E illustrates the track examples for CCNT1 ChIP-seq signal upon endogenous BRD4 depletion and rescue with indicated GFP-tagged mutants (left). Heatmap showing the genome-wide CCNT1 fold changes (right). […]

Ser2P = Ser2P ChIP-seq upon JQ1 or dBET6 treatment; assay type: cell-based, human; settings: BRD4-IAA7 cells; series concentration of JQ1 or 250 nM dBET6, 3 h
Method: as §1

Pol II pausing [2] = settings: reference 21; cited from earlier work

Cc1sc2c(c1C)C(c1ccc(Cl)cc1)=N[C@@H](CC(=O)OC(C)(C)C)c1nnc(C)n1-2 [JQ1]
effect on pausing at super enhancer-controlled genes such as Myc (Pol II pausing [1]; MYC locus): notable | Pol II pausing (Pol II occupancy profile) (Pol II pausing [1]; auxin 500 uM, JQ1 1 uM, dBET6 250 nM, 3 h): induced little to no pausing | gene-by-gene log 2PRR correlation with auxin treatment (Pol II pausing [1]; scatter plot): poorly correlated | CCNT1 ChIP-seq signals (CCNT1): decreased dramatically with increasing concentrations | Ser2P ChIP-seq signals (Ser2P): minimal | effect on Pol II pausing (RNA-seq, NET-seq) (Pol II pausing [2]): only a modest effect on Pol II pausing

Reference: US20240425555A1, “MUTANT BRD4 POLYPEPTIDES AND METHODS OF USE THEREOF” (Northwestern University, priority 2023, published 2024)
